Source: US11530244B2, “Cyclic polypeptides for PCSK9 inhibition” (priority 2018, dated 2022)
Starred links: 1 amine or outer side, 2 acyl side, 3 side chain; linkers in the order of their positions; H or OH if unused. Positions of bridges follow the written chain, without caps; N, C: chain ends. Non-standard residues stand in square brackets, D forms with d. Residues, ends and D or L forms follow the SMILES beside them. *: point of attachment. X18 = O=C([C@@H](Cc1cccc(OCC=[*:3])c1)N[*:1])[*:2]; Trp(5-F) = N[C@@H](Cc1c[nH]c2ccc(F)cc12)C(=O)O; Phe(4-CH2NH2) = NCc1ccc(C[C@H](N)C(=O)O)cc1; dPro(cis-4-NH2) = N[C@H]1CN[C@@H](C(=O)O)C1; Pro(cis-4-F) = O=C(O)[C@@H]1C[C@H](F)CN1; Lys(N3) = [N-]=[N+]=NCCCC[C@H](N)C(=O)O; X4 = O=C(CCSCc1cccc(CSCCN[*:1])c1)[*:2]; TBMB = c1c(C[*:1])cc(C[*:3])cc1C[*:2]; AEF = NCCOc1ccc(C[C@H](N)C(=O)O)cc1; Glutaryl = O=C(CCCC(=O)[*:2])[*:1]; X39 = c1cc(CCSCN[*:2])cc(C[*:1])c1; X6 = O=C(Cc1ccc(CN[*:2])cc1)[*:1]; X8 = Clc1cc(C[*:1])cc(C[*:2])c1; Aad = N[C@@H](CCCC(=O)O)C(=O)O; AllylGly = C=CC[C@H](N)C(=O)O; αMeP = C[C@@]1(C(=O)O)CCCN1; Glycolyl = O=C(CO)*; Mpa = O=C(O)CCS

Key:
Type in all cases: binding
PCSK9 [1] = target: T1, PCSK9 (Homo sapiens (Human), UniProt Q8NBP7); test: PCSK9 Alexa FRET Standard assay (displacement of AlexaFluor647 tagged cyclic peptide Reagent A); settings: PCSK9 Alexa FRET Standard assay, 0.5 nM PCSK9, 20 nM AF cyclic peptide Reagent A; read-out: IC50
T1 sequence (Q8NBP7 153-692): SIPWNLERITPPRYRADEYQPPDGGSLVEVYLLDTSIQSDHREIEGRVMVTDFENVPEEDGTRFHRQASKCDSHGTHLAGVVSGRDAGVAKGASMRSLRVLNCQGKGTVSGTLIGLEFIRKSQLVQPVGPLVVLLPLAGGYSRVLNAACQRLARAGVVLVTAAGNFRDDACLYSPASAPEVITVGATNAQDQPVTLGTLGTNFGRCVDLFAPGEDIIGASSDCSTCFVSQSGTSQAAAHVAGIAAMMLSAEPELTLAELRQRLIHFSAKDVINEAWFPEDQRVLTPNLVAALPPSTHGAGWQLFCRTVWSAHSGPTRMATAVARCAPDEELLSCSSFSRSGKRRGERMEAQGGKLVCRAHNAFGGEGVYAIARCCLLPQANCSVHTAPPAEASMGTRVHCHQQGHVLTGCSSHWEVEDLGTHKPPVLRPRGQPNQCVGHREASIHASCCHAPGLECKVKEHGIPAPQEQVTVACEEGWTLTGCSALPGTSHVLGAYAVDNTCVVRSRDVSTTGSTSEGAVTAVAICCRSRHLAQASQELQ
In short: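 TR-FRET displacement: 0.5 nM biotinylated PCSK9 with 1.25 nM Strep-Eu and 20 nM AlexaFluor-tagged cyclic peptide (final) in 50 mM HEPES pH 7.4, 0.15 M NaCl, 5 mM CaCl2, 0.01% BSA, 0.01% P20, ≥2 h at room temperature. IC50 from sigmoidal fit, converted to Ki via peptide KD; falling Eu counts flagged false positives.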

PCSK9 [2] = target: T1, PCSK9; test: PCSK9 Alexa FRET Plus assay (displacement of AlexaFluor647 tagged cyclic peptide Reagent B); settings: Alexa FRET Plus, 0.5 nM PCSK9, 960 nM AF cyclic peptide Reagent B; read-out: IC50
Protocol: A solution containing 1 nM biotinylated PCSK9+2.5 nM Lance Streptavidin Europium (Strep-Eu) was made in 50 mM HEPES pH 7.4, 0.15 M NaCl, 5 mM CaCl2), 0.01% BSA, and 0.01% Surfactant P20. A separate solution containing 1920 nM of the AlexaFluor tagged cyclic peptide was made in the same buffer system. An Echo was used to transfer 0.075 ul of compound plus 0.675 ul of DMSO to each well of an assay plate followed by the addition of 15 ul of PCSK9+Stept-Eu and 15 ul of AF peptide. The final assay volume was 30.750 ul containing 0.5 nM PCSK9, 1.25 nM Strep-Eu, and 960 nM AF cyclic peptide. The reaction was incubated at room temperature for at least two hours prior to fluorescence measurements using an Envision Multilabel Reader. IC50 values were determined by fitting data to a sigmoidal dose-response curve using nonlinear regression. Ki was then calculated from the IC50 and the KD of AF cyclic peptide. Counts (B-counts) of the europium-labeled PCSK9 were followed to observe if compounds were adversely affecting PCSK9. A fall off of the B-counts likely indicated a false positive of inhibition. Data from this procedure was reported as “P=‘numerical value’ (nanomolar)”

[3] = target: human PCSK9 / human LDLR EGFa domain interaction (Homo sapiens (Human), UniProt Q8NBP7); test: TR-FRET assay of inhibition of the PCSK9-LDLR protein-protein interaction; settings: TR-FRET, 20 nM human PCSK9, 20 nM human LDLR EGFa domain, 2 hours room temperature; read-out: IC50
human PCSK9 / human LDLR EGFa domain interaction, sequence (Q8NBP7 153-692): as above
human PCSK9 / human LDLR EGFa domain interaction, sequence (Q8NBP7 31-152 partner): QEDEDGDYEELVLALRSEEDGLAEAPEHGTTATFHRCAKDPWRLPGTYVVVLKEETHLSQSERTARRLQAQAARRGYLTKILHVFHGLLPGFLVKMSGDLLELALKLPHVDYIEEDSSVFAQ
In short: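 Readout is the TR-FRET signal between europium anti-6×His on his-tagged LDLR EGFa domain and Ulight streptavidin on biotinylated PCSK9, both proteins at 20 nM and both detection reagents at 5 nM. Incubation lasted 2 hours at room temperature; compounds were run in dose-response with a 4-parameter fit.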

Row | Compound | IC50 (PCSK9 [1]) | IC50 (PCSK9 [2]) | IC50 [3]
1 | COc1ccc(C[C@@H]2NC(=O)[C@H](Cc3cnc[nH]3)NC(=O)[C@H](CC(=O)O)NC(=O)[C@H](Cc3c[nH]c4ccc(F)cc34)NC(=O)[C@H](Cc3c[nH]c4ccc(F)cc34)NC(=O)[C@@H](C)NC(=O)CCCC(=O)NCc3ccc(cc3)C[C@@H](C(N)=O)NC(=O)[C@]3(C)CCCN3C2=O)cc1 [Compound 417] ([dA][Trp(5-F)][Trp(5-F)]DHY(Me)[αMeP][Phe(4-CH2NH2)]-NH2; linker N-8 via Glutaryl) | 0.00011 to 0.1 µM | 0.1 to 0.5 µM | 
2 | COc1ccc(C[C@@H]2NC(=O)[C@H]([C@@H](C)O)NC(=O)[C@@H]3C[C@H](F)CN3C(=O)[C@H](Cc3c[nH]c4ccc(F)cc34)NC(=O)[C@H](Cc3c[nH]c4ccc(F)cc34)NC(=O)[C@@H](C)NC(=O)[C@H](CCCCN)NC(=O)[C@@H](NC(=O)CO)CC(=O)NCCOc3ccc(cc3)C[C@@H](C(N)=O)NC(=O)[C@]3(C)CCCN3C2=O)cc1 [Compound 115] (Glycolyl-DK[dA][Trp(5-F)][Trp(5-F)][Pro(cis-4-F)]TY(Me)[αMeP][AEF]-NH2; lactam 1-10) | 0.1 to 1 µM | 0.5 to 5 µM | 
3 | COc1ccc(C[C@@H]2NC(=O)[C@H]([C@@H](C)O)NC(=O)[C@@H]3CC[C@H](F)N3C(=O)[C@H](Cc3c[nH]c4ccc(F)cc34)NC(=O)[C@H](Cc3c[nH]c4ccc(F)cc34)NC(=O)[C@@H](C)NC(=O)c3ccc(cc3)-c3ccc(cc3)CNCc3ccc(cc3)C[C@@H](C(N)=O)NC(=O)[C@]3(C)CCCN3C2=O)cc1 [Compound 093] | 1 to 12.1 µM | 0.5 to 5 µM | 
4 | COc1ccc(C[C@@H]2NC(=O)[C@H](Cc3cnc[nH]3)NC(=O)[C@H](CC(=O)O)NC(=O)[C@H](Cc3c[nH]c4ccc(F)cc34)NC(=O)[C@H](Cc3c[nH]c4ccc(F)cc34)NC(=O)[C@@H](C)NC(=O)[C@H](NC(C)=O)CCCCNC(=O)Cc3ccc(cc3)CNC(=O)C[C@@H](C(N)=O)NC(=O)[C@]3(C)CCCN3C2=O)cc1 [Compound 397] (Ac-[dK][dA][Trp(5-F)][Trp(5-F)]DHY(Me)[αMeP]D-NH2; linker 1-9 via X6) | 1 to 12.1 µM |  | 1 to 12.1 µM
5 | COc1ccc(C[C@@H]2NC(=O)[C@H](CCCC(=O)O)NC(=O)[C@H]3C[C@@H](N)CN3C(=O)[C@H](Cc3c[nH]c4ccc(F)cc34)NC(=O)[C@H](Cc3c[nH]c4ccc(F)cc34)NC(=O)[C@@H](C)NC(=O)[C@H](CCCCN=[N+]=[N-])NC(=O)CCSCc3cccc(c3)CCSCNC(=O)[C@]3(C)CCCN3C2=O)cc1 [Compound 408] ([Mpa][Lys(N3)][dA][Trp(5-F)][Trp(5-F)][dPro(cis-4-NH2)][Aad]Y(Me)[αMeP]; linker 1-C via X39) | 21 to 50 µM |  | 21 to 50 µM
6 | C[C@@H]1NC(=O)CCSCc2cccc(c2)CSCCNC(=O)[C@]2(C)CCCN2C(=O)[C@H](Cc2ccc(O)cc2)NC(=O)[C@H](C)NC(=O)[C@@H]2C/C=C\COc3cccc(c3)C[C@@H](NC(=O)[C@@H](C)NC1=O)C(=O)N[C@@H](Cc1c[nH]c3ccc(F)cc13)C(=O)N2 [Compound 498] (cyclo(AY[αMeP][X4]A[dA][X18][Trp(5-F)][AllylGly]); staple (Z) 7-9) | 1 to 12.1 µM |  | 1 to 12.1 µM
7 | COc1ccc(C[C@@H]2NC(=O)[C@H]([C@@H](C)O)NC(=O)[C@@H]3CCCN3C(=O)[C@H](Cc3c[nH]c4ccc(F)cc34)NC(=O)[C@H](Cc3c[nH]c4ccc(F)cc34)NC(=O)[C@@H](C)NC(=O)[C@H](CCCCN)NC(=O)CCSCc3cc(Cl)cc(c3)CSC[C@@H](C(N)=O)NC(=O)[C@]3(C)CCCN3C2=O)cc1 [Compound 064] ([Mpa]K[dA][Trp(5-F)][Trp(5-F)]PTY(Me)[αMeP]C-NH2; linker 1-10 via X8) | 1 to 12.1 µM |  | 1 to 12.1 µM
8 | Cc1cc2cc(c1)CSC[C@@H](C(N)=O)NC(=O)[C@]1(C)CCCN1C(=O)[C@H](Cc1ccc(O)cc1)NC(=O)[C@H](Cc1c[nH]cn1)NC(=O)[C@H](CC(=O)O)NC(=O)[C@H](Cc1c[nH]c3ccc(F)cc13)NC(=O)[C@H](Cc1c[nH]c3ccc(F)cc13)NC(=O)CNC(=O)[C@H](CCCCN)NC(=O)CCSC2 [Compound 357] ([Mpa]KG[Trp(5-F)][Trp(5-F)]DHY[αMeP]C-NH2; linker 1-10 via TBMB) | 1 to 12.1 µM |  | 1 to 12.1 µM
